Data from patent US5132111A (priority 1990, dated 1992).
Non-standard residues stand in square brackets, D forms with d. Residues, ends and D or L forms follow the SMILES beside them. Nle = CCCC[C@H](N)C(=O)O

System: cultured rat pituitary cells
Type: cell-based

Q: Which “secretion of ACTH” value does the source give for “H-SQE[dP]PISLDLTFHLLRE[Nle]LE[Nle]ARAEQEAEQAALNRLLLEEA-NH2 [[D-Pro^4, Nle^18,21]-AAHC]” here?
A: stimulates

Q: And the “secretion of β-endorphin (β-END-LI)” value?
A: stimulates

Q: What does the source list for “H-SQ[dY][dP]PISLDLTFHLLRE[Nle]LE[Nle]ARAEQEAEQAALNRLLLEEA-NH2 [[D-Tyr^3, D-Pro^4, Nle^18, 21]-AAHC]”?
A: secretion of ACTH: stimulates; secretion of β-endorphin (β-END-LI): stimulates

Q: With “H-Ser-Gln-Glu-Pro-Pro-Ile-Ser-Leu-Asp-CML-Thr-Leu-Glu-Leu -Leu-Arg-Glu-Met-Leu-Glu-Met-Ala-Arg-Ala-Glu-Gln-Glu-Ala -Glu-Gln-Ala-Ala-Leu-Asn-Arg-Leu-Tyr-Leu-Glu-Glu-Ala-NH2 [[Leu^12, Glu^13, Tyr^37]-AAHC]” as the compound, how does the “secretion of ACTH” value read?
A: stimulates

Q: What about the “secretion of β-endorphin (β-END-LI)” value of the same compound?
A: stimulates

Q: Which “secretion of ACTH” value does the source give for “H-VSEPPISLDLTFHLLREVLEMARAEQLAQQAHSNRRLMEEI-NH2 [[Val^1, Ser^2, Arg^36, Glu^40]-rCRF]” here?
A: stimulates

Q: What about the “secretion of β-endorphin (β-END-LI)” value of the same compound?
A: stimulates

System: gonadotropes (anterior pituitary cells)
Type: cell-based, rat

Q: Which “LH-secretory response to GnRH after pretreatment” value does the source give for “H-Ser-Gln-Glu-Pro-Pro-Ile-Ser-Leu-Asp-Leu-Thr-Phe-His -Leu-Leu-Arg-Glu-Val-Leu-Glu-Met-Thr-Lys-Ala-Asp-Gln -Leu-Ala-Gln-Gln-Ala-His-Ser-Asn-Arg-Lys-Leu-Leu-Asp-Ile-Ala-NH2 [CRF]” here?
A: no effect

Q: And the “effect on LH content” value?
A: neither CRF nor the cytotoxic conjugate has any significant effect on LH content

System: CRF Target Cells (anterior pituitary cells)
Type: cell-based, rat

Q: For “H-Ser-Gln-Glu-Pro-Pro-Ile-Ser-Leu-Asp-Leu-Thr-Phe-His -Leu-Leu-Arg-Glu-Val-Leu-Glu-Met-Thr-Lys-Ala-Asp-Gln -Leu-Ala-Gln-Gln-Ala-His-Ser-Asn-Arg-Lys-Leu-Leu-Asp-Ile-Ala-NH2 [CRF]”, which “ACTH secretion in response to CRF 3 days following pretreatment” value is on record?
A: 3.7 times the basal rate

Q: And the “ACTH-secretory response to subsequent CRF after pretreatment” value?
A: does not eliminate the ability of the cells to respond

Q: And the “decrease of ACTH content” value?
A: 40%

System: secretion of ACTH and β-END-LI

Q: With `CCCC[C@H](N)C(=O)N[C@@H](CC(=O)O)C(=O)N[C@@H](CC(C)C)C(=O)N[C@@H](CO)C(=O)N[C@@H](Cc1ccccc1)C(=O)N[C@@H](Cc1c[nH]cn1)C(=O)N[C@@H](CC(C)C)C(=O)N[C@@H](CC(C)C)C(=O)N[C@@H](CCCNC(=N)N)C(=O)N[C@@H](CCC(=O)O)C(=O)N[C@H](C(=O)N[C@@H](CC(C)C)C(=O)N[C@@H](CCC(=O)O)C(=O)N[C@@H](CCSC)C(=O)N[C@@H](C)C(=O)N[C@@H](CCCNC(=N)N)C(=O)N[C@@H](C)C(=O)N[C@@H](CCC(=O)O)C(=O)N[C@@H](CCC(N)=O)C(=O)N[C@@H](CC(C)C)C(=O)N[C@@H](C)C(=O)N[C@@H](CCC(N)=O)C(=O)N[C@@H](CCC(N)=O)C(=O)N[C@@H](C)C(=O)N[C@@H](Cc1c[nH]cn1)C(=O)N[C@@H](CC(C)C)C(=O)N[C@@H](CC(N)=O)C(=O)N[C@@H](CCCNC(=N)N)C(=O)N[C@@H](CCCNC(=N)N)C(=O)N[C@@H](CC(C)C)C(=O)N[C@@H](CCSC)C(=O)N[C@@H](CCC(=O)O)C(=O)N[C@H](C(=O)N[C@H](C(N)=O)[C@@H](C)CC)[C@@H](C)CC)C(C)C` (H-[Nle]DLSFHLLREVLEMARAEQLAQQAHLNRRLMEII-NH2) as the compound, how does the “secretion of ACTH (inhibition)” value read?
A: inhibits

Q: What about the “secretion of β-END-LI (inhibition)” value of the same compound?
A: inhibits

Q: What does the source list for `CCCC[C@H](NC(=O)[C@H](CCC(=O)O)NC(=O)[C@H](CC(C)C)NC(=O)[C@H](CCCC)NC(=O)[C@H](CCC(=O)O)NC(=O)[C@H](CCCNC(=N)N)NC(=O)[C@H](CC(C)C)NC(=O)[C@H](CC(C)C)NC(=O)[C@H](CCC(=O)O)NC(=O)[C@H](Cc1ccccc1)NC(=O)[C@@H](NC(=O)[C@H](CC(C)C)NC(=O)[C@@H](N)CC(=O)O)[C@@H](C)O)C(=O)N[C@@H](C)C(=O)N[C@@H](CCCNC(=N)N)C(=O)N[C@@H](C)C(=O)N[C@@H](CCC(=O)O)C(=O)N[C@@H](CCC(N)=O)C(=O)N[C@@H](CCC(=O)O)C(=O)N[C@@H](C)C(=O)N[C@@H](CCC(=O)O)C(=O)N[C@@H](CCC(N)=O)C(=O)N[C@@H](C)C(=O)N[C@@H](C)C(=O)N[C@@H](CC(C)C)C(=O)N[C@@H](CC(N)=O)C(=O)N[C@@H](CCCNC(=N)N)C(=O)N[C@@H](CC(C)C)C(=O)N[C@@H](CC(C)C)C(=O)N[C@@H](CC(C)C)C(=O)N[C@@H](CCC(=O)O)C(=O)N[C@@H](CCC(=O)O)C(=O)N[C@@H](C)C(N)=O` [[Glu^13,Nle^18,21]-AAHC(9-41)] (H-DLTFELLRE[Nle]LE[Nle]ARAEQEAEQAALNRLLLEEA-NH2)?
A: secretion of ACTH (inhibition): inhibits; secretion of β-END-LI (inhibition): inhibits

Q: `CCCC[C@H](NC(=O)[C@H](CCC(=O)O)NC(=O)[C@H](CC(C)C)NC(=O)[C@H](CCCC)NC(=O)[C@H](CCC(=O)O)NC(=O)[C@H](CCCNC(=N)N)NC(=O)[C@H](CC(C)C)NC(=O)[C@H](CC(C)C)NC(=O)[C@H](Cc1c[nH]cn1)NC(=O)[C@H](Cc1ccccc1)NC(=O)[C@@H](NC(=O)[C@H](CC(C)C)NC(=O)[C@H](CC(=O)O)NC(=O)[C@@H](N)CC(C)C)[C@@H](C)O)C(=O)N[C@@H](C)C(=O)N[C@@H](CCCNC(=N)N)C(=O)N[C@@H](C)C(=O)N[C@@H](CCC(=O)O)C(=O)N[C@@H](CCC(N)=O)C(=O)N[C@@H](CCC(=O)O)C(=O)N[C@@H](C)C(=O)N[C@@H](CCC(=O)O)C(=O)N[C@@H](CCC(N)=O)C(=O)N[C@@H](C)C(=O)N[C@@H](C)C(=O)N[C@@H](CC(C)C)C(=O)N[C@@H](CC(N)=O)C(=O)N[C@@H](CCCNC(=N)N)C(=O)N[C@@H](CC(C)C)C(=O)N[C@@H](CC(C)C)C(=O)N[C@@H](CC(C)C)C(=O)N[C@@H](CCC(=O)O)C(=O)N[C@@H](CCC(=O)O)C(=O)N[C@@H](C)C(N)=O` [[Nle^18,21]-AAHC(8-41)] (H-LDLTFHLLRE[Nle]LE[Nle]ARAEQEAEQAALNRLLLEEA-NH2) was tested. Which “secretion of ACTH (inhibition)” value did it give?
A: inhibits

Q: What about the “secretion of β-END-LI (inhibition)” value of the same compound?
A: inhibits

Q: Which “secretion of ACTH (inhibition)” value does the source give for `CCCC[C@H](NC(=O)[C@H](CCC(=O)O)NC(=O)[C@H](CC(C)C)NC(=O)[C@H](CCCC)NC(=O)[C@H](CCC(=O)O)NC(=O)[C@H](CCCNC(=N)N)NC(=O)[C@H](CC(C)C)NC(=O)[C@H](CC(C)C)NC(=O)[C@H](Cc1c[nH]cn1)NC(=O)[C@H](Cc1ccccc1)NC(=O)[C@@H](NC(=O)[C@H](CC(C)C)NC(=O)[C@@H](N)CC(=O)O)[C@@H](C)O)C(=O)N[C@@H](C)C(=O)N[C@@H](CCCNC(=N)N)C(=O)N[C@@H](C)C(=O)N[C@@H](CCC(=O)O)C(=O)N[C@@H](CCC(N)=O)C(=O)N[C@@H](CCC(=O)O)C(=O)N[C@@H](C)C(=O)N[C@@H](CCC(=O)O)C(=O)N[C@@H](CCC(N)=O)C(=O)N[C@@H](C)C(=O)N[C@@H](C)C(=O)N[C@@H](CC(C)C)C(=O)N[C@@H](CC(N)=O)C(=O)N[C@@H](CCCNC(=N)N)C(=O)N[C@@H](CC(C)C)C(=O)N[C@@H](CC(C)C)C(=O)N[C@@H](CC(C)C)C(=O)N[C@@H](CCC(=O)O)C(=O)N[C@@H](CCC(=O)O)C(=O)N[C@@H](C)C(N)=O` [[Nle^18,21]-AAHC(9-41)] (H-DLTFHLLRE[Nle]LE[Nle]ARAEQEAEQAALNRLLLEEA-NH2) here?
A: inhibits

Q: And the “secretion of β-END-LI (inhibition)” value?
A: inhibits

Q: `CCCC[C@H](NC(=O)[C@H](CCC(=O)O)NC(=O)[C@H](CC(C)C)NC(=O)[C@H](CCCC)NC(=O)[C@H](CCC(=O)O)NC(=O)[C@H](CCCNC(=N)N)NC(=O)[C@H](CC(C)C)NC(=O)[C@H](CC(C)C)NC(=O)[C@H](Cc1c[nH]cn1)NC(=O)[C@H](Cc1ccccc1)NC(=O)[C@@H](NC(=O)[C@@H](N)CC(C)C)[C@@H](C)O)C(=O)N[C@@H](C)C(=O)N[C@@H](CCCNC(=N)N)C(=O)N[C@@H](C)C(=O)N[C@@H](CCC(=O)O)C(=O)N[C@@H](CCC(N)=O)C(=O)N[C@@H](CCC(=O)O)C(=O)N[C@@H](C)C(=O)N[C@@H](CCC(=O)O)C(=O)N[C@@H](CCC(N)=O)C(=O)N[C@@H](C)C(=O)N[C@@H](C)C(=O)N[C@@H](CC(C)C)C(=O)N[C@@H](CC(N)=O)C(=O)N[C@@H](CCCNC(=N)N)C(=O)N[C@@H](CC(C)C)C(=O)N[C@@H](CC(C)C)C(=O)N[C@@H](CC(C)C)C(=O)N[C@@H](CCC(=O)O)C(=O)N[C@@H](CCC(=O)O)C(=O)N[C@@H](C)C(N)=O` [[Nle^18,21]-AAHC(10-41)] (H-LTFHLLRE[Nle]LE[Nle]ARAEQEAEQAALNRLLLEEA-NH2) was tested. Which “secretion of ACTH (inhibition)” value did it give?
A: inhibits

Q: And the “secretion of β-END-LI (inhibition)” value?
A: inhibits

Q: Which “secretion of ACTH (inhibition)” value does the source give for “H-Asp-CML-Thr-Leu-Glu -CML-CML-Arg-Glu-Met-CML-Glu-Met-CMA-Arg-Ala-Glu-Gln-CML -Ala-Glu-Gln-Ala-CMA-CML-Asn-Arg-Leu-CML-Leu-Glu-Glu-CMA-NH2” here?
A: inhibits

Q: What about the “secretion of β-END-LI (inhibition)” value of the same compound?
A: inhibits

Q: For “H-DLTFELLREVLEVARAEQLAQQAHSNRRLMEII-NH2 [[Glu^13, Val^21, Arg^36]-rCRF (9-41)]”, which “secretion of ACTH (inhibition)” value is on record?
A: inhibits

Q: And the “secretion of β-END-LI (inhibition)” value?
A: inhibits

Q: “H-DLTFHLLREMLEMARAEQEAEQAALNRLLLEEA-NH2 [AAHC(9-41)]” was tested. Which “secretion of ACTH (inhibition)” value did it give?
A: inhibits

Q: “H-DLTFHLLREVAEMTRAEQLAQQAHSNRRLMEII-NH2 [[Ala^19, Thr^22, Arg^36]-hCRF (9-41)]” was tested. Which “secretion of ACTH (inhibition)” value did it give?
A: inhibits

Q: And the “secretion of β-END-LI (inhibition)” value?
A: inhibits

Q: How did the “secretion of ACTH (inhibition)” value turn out when “H-DLTFHLLREVLEMARAEQLAQQAHSNRRLMEII-NH2 [[Arg^36]-rCRF (9-41)]” was run?
A: inhibits

Q: For “H-IDLTFHLLRNMIEMARNENQREQAGLNRRYLDEV-NH2 [[Arg^36]-Carp Urotensin I(8-41)]”, which “secretion of ACTH (inhibition)” value is on record?
A: inhibits

Q: And the “secretion of β-END-LI (inhibition)” value?
A: inhibits

Q: With “H-LDLTFHLLREVLEMARAEQLAQQAHSNRRLMEII-NH2 [[Arg^36]-rCRF(8-41)]” as the compound, how does the “secretion of ACTH (inhibition)” value read?
A: inhibits

Q: What about the “secretion of β-END-LI (inhibition)” value of the same compound?
A: inhibits

Q: How did the “secretion of ACTH (inhibition)” value turn out when “H-LTFHLLREVLEMARAEQLAQQAHSNRRLMEII-NH2 [[Arg^36]-rCRF(10-41)]” was run?
A: inhibits

Q: And the “secretion of β-END-LI (inhibition)” value?
A: inhibits
